Measurements reported in patent publication US6916812B2, “Alpha-aminoamide derivatives as melanocortin agonists” (Bristol-Myers Squibb Company, priority 2001, dated 2005).
Like-named read-outs stand apart in the source and are kept apart here.

Target: T1, cloned human MC4R (Homo sapiens, UniProt P32245)
T1 construct: made in house; host or cells: Hi5 insect cells (baculovirus infection); membrane preparation
Experiment: Membrane binding assay: competitive inhibition of [125I]NDP-α-MSH binding
Details: for inhibition at 10 µM: read-out: Displacement Rate (%) (at 10 μM); for IC50: read-out: MC4R IC50

[1] = at 10 μM, [125I]NDP-α-MSH displacement

T1 sequence (P32245 whole entry): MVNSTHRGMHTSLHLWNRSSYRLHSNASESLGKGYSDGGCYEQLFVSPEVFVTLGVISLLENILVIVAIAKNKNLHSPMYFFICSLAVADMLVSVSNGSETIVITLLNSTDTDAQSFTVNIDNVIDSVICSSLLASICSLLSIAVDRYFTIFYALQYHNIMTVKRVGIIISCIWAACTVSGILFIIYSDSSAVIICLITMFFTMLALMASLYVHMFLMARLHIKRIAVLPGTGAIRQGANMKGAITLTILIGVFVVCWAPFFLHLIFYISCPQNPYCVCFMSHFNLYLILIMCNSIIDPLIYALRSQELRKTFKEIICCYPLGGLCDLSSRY

CCc1ccc(CN2CCN(C(=O)[C@@H](N)Cc3ccc(OCc4ccccc4)cc3)CC2)s1 [Example 131]
inhibition at 10 µM [1]: 35 to 70% | IC50: > 3000 nM

COc1ccc(CCC(C)N2CCN(C(=O)[C@@H](N)Cc3ccc(OCc4ccccc4)cc3)CC2)cc1 (stereo partly drawn) [Example 132]
inhibition at 10 µM [1]: 35 to 70% | IC50: > 3000 nM

CCCCCCCCOc1ccc(CN2CCN(C(=O)[C@@H](N)Cc3ccc(OCc4ccccc4)cc3)CC2)cc1 [Example 133]
inhibition at 10 µM [1]: 35 to 70% | IC50: < 1500 nM

N[C@@H](Cc1ccc(OCc2ccccc2)cc1)C(=O)N1CCN(Cc2cc([N+](=O)[O-])ccc2Cl)CC1 [Example 134]
inhibition at 10 µM: 35 to 70% | IC50: 1500 to 3000 nM

CCc1ccc(CN2CCN(C(=O)[C@@H](N)Cc3ccc(OCc4ccccc4)cc3)CC2)cc1 [Example 135]
inhibition at 10 µM [1]: 35 to 70% | IC50: > 3000 nM

CC(Cc1cccc(C(F)(F)F)c1)N1CCN(C(=O)[C@@H](N)Cc2ccc(OCc3ccccc3)cc2)CC1 (stereo partly drawn) [Example 136]
inhibition at 10 µM [1]: 35 to 70% | IC50: > 3000 nM

CN(C)c1ccc(CN2CCN(C(=O)[C@@H](N)Cc3ccc(OCc4ccccc4)cc3)CC2)c2ccccc12 [Example 137]
inhibition at 10 µM [1]: 35 to 70% | IC50: > 3000 nM

N[C@@H](Cc1ccc(OCc2ccccc2)cc1)C(=O)N1CCN(Cc2ccc(C(F)(F)F)cc2)CC1 [Example 138]
inhibition at 10 µM [1]: 35 to 70% | IC50: > 3000 nM

N[C@@H](Cc1ccc(OCc2ccccc2)cc1)C(=O)N1CCN(C2CCN(CCc3ccccc3)CC2)CC1 [Example 139]
inhibition at 10 µM [1]: 35 to 70% | IC50: 1500 to 3000 nM

N[C@@H](Cc1ccc(OCc2ccccc2)cc1)C(=O)N1CCN(Cc2c(F)cccc2Cl)CC1 [Example 140]
inhibition at 10 µM [1]: 35 to 70% | IC50: > 3000 nM

N[C@@H](Cc1ccc(OCc2ccccc2)cc1)C(=O)N1CCN(Cc2ccccc2)CC1 [Example 141]
inhibition at 10 µM [1]: 35 to 70% | IC50: > 3000 nM

N[C@@H](Cc1ccc(OCc2ccccc2)cc1)C(=O)N1CCN(Cc2c(F)cccc2F)CC1 [Example 142]
inhibition at 10 µM [1]: 35 to 70% | IC50: > 3000 nM

CC(C)N1CCN(C(=O)[C@@H](N)Cc2ccc(OCc3ccccc3)cc2)CC1 [Example 143]
inhibition at 10 µM [1]: 35 to 70% | IC50: > 3000 nM

Cc1cccc(CN2CCN(C(=O)[C@@H](N)Cc3ccc(OCc4ccccc4)cc3)CC2)c1 [Example 144]
inhibition at 10 µM [1]: 35 to 70% | IC50: > 3000 nM

N[C@@H](Cc1ccc(OCc2ccccc2)cc1)C(=O)N1CCN(Cc2cc(F)ccc2F)CC1 [Example 145]
inhibition at 10 µM [1]: 35 to 70% | IC50: > 3000 nM

CC(C)CN1CCN(C(=O)[C@@H](N)Cc2ccc(OCc3ccccc3)cc2)CC1 [Example 146]
inhibition at 10 µM [1]: 35 to 70% | IC50: > 3000 nM

N[C@@H](Cc1ccc(OCc2ccccc2)cc1)C(=O)N1CCN(CCCc2ccccc2)CC1 [Example 147]
inhibition at 10 µM [1]: 35 to 70% | IC50: > 3000 nM

N[C@@H](Cc1ccc(OCc2ccccc2)cc1)C(=O)N1CCN(Cc2cc(O)ccc2[N+](=O)[O-])CC1 [Example 148]
inhibition at 10 µM: 35 to 70% | IC50: > 3000 nM

N[C@@H](Cc1ccc(OCc2ccccc2)cc1)C(=O)N1CCN(Cc2ccc([N+](=O)[O-])cc2)CC1 [Example 149]
inhibition at 10 µM [1]: 35 to 70% | IC50: > 3000 nM

COc1cc(CN2CCN(C(=O)[C@@H](N)Cc3ccc(OCc4ccccc4)cc3)CC2)ccc1OCc1ccc([N+](=O)[O-])cc1 [Example 150]
inhibition at 10 µM [1]: 35 to 70% | IC50: 1500 to 3000 nM

N[C@@H](Cc1ccc(OCc2ccccc2)cc1)C(=O)N1CCN(Cc2ccco2)CC1 [Example 151]
inhibition at 10 µM [1]: 35 to 70% | IC50: > 3000 nM

N[C@@H](Cc1ccc(OCc2ccccc2)cc1)C(=O)N1CCN(Cc2cccc([N+](=O)[O-])c2)CC1 [Example 152]
inhibition at 10 µM [1]: 35 to 70% | IC50: > 3000 nM

N[C@@H](Cc1ccc(OCc2ccccc2)cc1)C(=O)N1CCN(Cc2ccc(F)cc2F)CC1 [Example 153]
inhibition at 10 µM [1]: 35 to 70% | IC50: > 3000 nM

N[C@@H](Cc1ccc(OCc2ccccc2)cc1)C(=O)N1CCN(Cc2cc3c(cc2[N+](=O)[O-])OCO3)CC1 [Example 154]
inhibition at 10 µM [1]: 35 to 70% | IC50: > 3000 nM

N[C@@H](Cc1ccc(OCc2ccccc2)cc1)C(=O)N1CCN(C2CCN(Cc3ccccc3)CC2)CC1 [Example 155]
inhibition at 10 µM [1]: 35 to 70% | IC50: > 3000 nM

N[C@@H](Cc1ccc(OCc2ccccc2)cc1)C(=O)N1CCN(Cc2ccc3c(c2)OCCO3)CC1 [Example 156]
inhibition at 10 µM [1]: 35 to 70% | IC50: > 3000 nM

CC(c1ccccc1)N1CCN(C(=O)[C@@H](N)Cc2ccc(OCc3ccccc3)cc2)CC1 (stereo partly drawn) [Example 157]
inhibition at 10 µM [1]: 35 to 70% | IC50: > 3000 nM

N[C@@H](Cc1ccc(OCc2ccccc2)cc1)C(=O)N1CCN(C2CCCC2)CC1 [Example 158]
inhibition at 10 µM [1]: 35 to 70% | IC50: > 3000 nM

CN[C@@H](Cc1ccc(OCc2ccccc2)cc1)C(=O)N1CCN(Cc2cccc(Cl)c2Cl)CC1 [Example 165]
IC50: < 1500 nM

CCN[C@@H](Cc1ccc(OCc2ccccc2)cc1)C(=O)N1CCN(Cc2cccc(Cl)c2Cl)CC1 [Example 166]
inhibition at 10 µM [1]: 91 to 100% | IC50: < 1500 nM

CCCN[C@@H](Cc1ccc(OCc2ccccc2)cc1)C(=O)N1CCN(Cc2cccc(Cl)c2Cl)CC1 [Example 167]
inhibition at 10 µM [1]: 91 to 100% | IC50: < 1500 nM

CC(C)N[C@@H](Cc1ccc(OCc2ccccc2)cc1)C(=O)N1CCN(Cc2cccc(Cl)c2Cl)CC1 [Example 168]
inhibition at 10 µM [1]: 71 to 90% | IC50: < 1500 nM

CCCCN[C@@H](Cc1ccc(OCc2ccccc2)cc1)C(=O)N1CCN(Cc2cccc(Cl)c2Cl)CC1 [Example 169]
inhibition at 10 µM [1]: 91 to 100% | IC50: < 1500 nM

O=C([C@H](Cc1ccc(OCc2ccccc2)cc1)NCc1ccccc1)N1CCN(Cc2cccc(Cl)c2Cl)CC1 [Example 170]
inhibition at 10 µM [1]: 71 to 90% | IC50: > 3000 nM

O=C([C@H](Cc1ccc(OCc2ccccc2)cc1)NCCc1ccccc1)N1CCN(Cc2cccc(Cl)c2Cl)CC1 [Example 171]
inhibition at 10 µM [1]: 71 to 90% | IC50: > 3000 nM

O=C([C@H](Cc1ccc(OCc2ccccc2)cc1)NCCN1CCOCC1)N1CCN(Cc2cccc(Cl)c2Cl)CC1 [Example 172]
inhibition at 10 µM [1]: 71 to 90% | IC50: 1500 to 3000 nM

O=C([C@H](Cc1ccc(OCc2ccccc2)cc1)NCCCN1CCOCC1)N1CCN(Cc2cccc(Cl)c2Cl)CC1 [Example 173]
inhibition at 10 µM [1]: 91 to 100% | IC50: < 1500 nM

CN(C)CCCN[C@@H](Cc1ccc(OCc2ccccc2)cc1)C(=O)N1CCN(Cc2cccc(Cl)c2Cl)CC1 [Example 174]
inhibition at 10 µM [1]: 91 to 100% | IC50: < 1500 nM

CN(C)CCN[C@@H](Cc1ccc(OCc2ccccc2)cc1)C(=O)N1CCN(Cc2cccc(Cl)c2Cl)CC1 [Example 175]
inhibition at 10 µM [1]: 91 to 100% | IC50: < 1500 nM

O=C([C@H](Cc1ccc(OCc2ccccc2)cc1)NCCN1CCCCC1)N1CCN(Cc2cccc(Cl)c2Cl)CC1 [Example 176]
inhibition at 10 µM [1]: 91 to 100% | IC50: < 1500 nM

N[C@@H](Cc1ccc(OCc2ccccc2)cc1)C(=O)N1CCN(Cc2cccc(Cl)c2Cl)CC1 [Example 178]
Displacement Rate (%) (at 10 μM) [1]: +++ (+++ = 91-100) | IC50: < 1500 nM

N[C@@H](Cc1ccc(OCc2ccccc2Br)cc1)C(=O)N1CCN(Cc2cccc(Cl)c2Cl)CC1 [Example 179]
Displacement Rate (%) (at 10 μM) [1]: +++ (+++ = 91-100) | IC50: < 1500 nM

N[C@@H](Cc1ccc(OCc2cccc(F)c2)cc1)C(=O)N1CCN(Cc2cccc(Cl)c2Cl)CC1 [Example 180]
Displacement Rate (%) (at 10 μM) [1]: +++ (+++ = 91-100) | IC50: < 1500 nM

N[C@@H](Cc1ccc(OCc2ccc(C(F)(F)F)cc2)cc1)C(=O)N1CCN(Cc2cccc(Cl)c2Cl)CC1 [Example 181]
Displacement Rate (%) (at 10 μM) [1]: +++ (+++ = 91-100) | IC50: < 1500 nM

N[C@@H](Cc1ccc(OCc2ccccc2C(F)(F)F)cc1)C(=O)N1CCN(Cc2cccc(Cl)c2Cl)CC1 [Example 182]
Displacement Rate (%) (at 10 μM) [1]: +++ (+++ = 91-100) | IC50: < 1500 nM

N[C@@H](Cc1ccc(OCc2ccc(Cl)cc2)cc1)C(=O)N1CCN(Cc2cccc(Cl)c2Cl)CC1 [Example 183]
Displacement Rate (%) (at 10 μM) [1]: +++ (+++ = 91-100) | IC50: < 1500 nM

CCCCc1ccc(COc2ccc(C[C@H](N)C(=O)N3CCN(Cc4cccc(Cl)c4Cl)CC3)cc2)cc1 [Example 184]
Displacement Rate (%) (at 10 μM) [1]: +++ (+++ = 91-100) | IC50: < 1500 nM

N[C@@H](Cc1ccc(OCc2c(F)c(F)c(F)c(F)c2F)cc1)C(=O)N1CCN(Cc2cccc(Cl)c2Cl)CC1 [Example 185]
Displacement Rate (%) (at 10 μM) [1]: +++ (+++ = 91-100) | IC50: < 1500 nM

N[C@@H](Cc1ccc(OCc2ccc(Br)cc2)cc1)C(=O)N1CCN(Cc2cccc(Cl)c2Cl)CC1 [Example 186]
Displacement Rate (%) (at 10 μM) [1]: +++ (+++ = 91-100) | IC50: < 1500 nM

N[C@@H](Cc1ccc(OCc2cccc(C(F)(F)F)c2)cc1)C(=O)N1CCN(Cc2cccc(Cl)c2Cl)CC1 [Example 187]
Displacement Rate (%) (at 10 μM) [1]: +++ (+++ = 91-100) | IC50: 1500 to 3000 nM

N[C@@H](Cc1ccc(OCc2ccc(F)cc2)cc1)C(=O)N1CCN(Cc2cccc(Cl)c2Cl)CC1 [Example 188]
Displacement Rate (%) (at 10 μM) [1]: +++ (+++ = 91-100) | IC50: < 1500 nM

N[C@@H](Cc1ccc(OCc2cc(Cl)cc(Cl)c2)cc1)C(=O)N1CCN(Cc2cccc(Cl)c2Cl)CC1 [Example 189]
Displacement Rate (%) (at 10 μM) [1]: +++ (+++ = 91-100) | IC50: < 1500 nM

Cc1cc(C)cc(COc2ccc(C[C@H](N)C(=O)N3CCN(Cc4cccc(Cl)c4Cl)CC3)cc2)c1 [Example 190]
Displacement Rate (%) (at 10 μM) [1]: +++ (+++ = 91-100) | IC50: 1500 to 3000 nM

Cc1ccc(COc2ccc(C[C@H](N)C(=O)N3CCN(Cc4cccc(Cl)c4Cl)CC3)cc2)cc1C [Example 191]
Displacement Rate (%) (at 10 μM) [1]: +++ (+++ = 91-100) | IC50: < 1500 nM

Cc1ccc(COc2ccc(C[C@H](N)C(=O)N3CCN(Cc4cccc(Cl)c4Cl)CC3)cc2)cc1 [Example 192]
Displacement Rate (%) (at 10 μM) [1]: +++ (+++ = 91-100) | IC50: < 1500 nM

N[C@@H](Cc1ccc(OCc2cccc(Oc3ccccc3)c2)cc1)C(=O)N1CCN(Cc2cccc(Cl)c2Cl)CC1 [Example 193]
Displacement Rate (%) (at 10 μM) [1]: +++ (+++ = 91-100) | IC50: < 1500 nM
